Measured values taken from US11446304B2, “CDC-7-inhibitor compounds and use thereof for the treatment of neurological conditions” (CONSEJO SUPERIOR DE INVESTIGACIONES CIENTIFICAS (CSIC), priority 2017, dated 2022).

Assays:
[1] = tested on: human SH-SY5Y neuroblastoma cells; assay: Neuroprotective effect against ethacrynic acid, cell viability by MTT; type: cell-based; conditions: ethacrynic acid 20 μM for 12 hours, inhibitors at 10 μM, FIG. 2
Experimental: FIG. 2. […] The data represent the mean of four different±SEM experiments (*p<0.05).
The human neuroblastoma cell line SH-SY5Y was cultured at 37° C. with 5% CO2 in DMEN medium (Dulbecco's Modified Eagle Medium) enriched with L-glutamine (2 mM), 1% non-essential amino acids, 1% Penicillin/Estreptomycin and 10% fetal bobin serum. In the semiconfluence state, the cells were treated with CDC7 inhibitors (compounds 1 and 8) at different concentrations for 1.30 hours post-addition of the causative agent of TPD-43 phosphorylation; ethacrynic acid ([…]) (Sigma). […] J Immunol Methods. 1987; 89:271-7) and levels of western blot phosphorylated TDP-43 (FIG. 2).

[2] = molecular target: T1, human recombinant CDC7 (Homo sapiens, UniProt O00311); assay: CDC7 inhibition measurement (ADP-Glo technology); type: biochemical; conditions: ATP 10 μM, 60 min at room temperature; read-out: CDC7 ADP-Glo ™ CI50
T1 construct: purchased Promega V5089
T1 sequence (O00311 whole entry): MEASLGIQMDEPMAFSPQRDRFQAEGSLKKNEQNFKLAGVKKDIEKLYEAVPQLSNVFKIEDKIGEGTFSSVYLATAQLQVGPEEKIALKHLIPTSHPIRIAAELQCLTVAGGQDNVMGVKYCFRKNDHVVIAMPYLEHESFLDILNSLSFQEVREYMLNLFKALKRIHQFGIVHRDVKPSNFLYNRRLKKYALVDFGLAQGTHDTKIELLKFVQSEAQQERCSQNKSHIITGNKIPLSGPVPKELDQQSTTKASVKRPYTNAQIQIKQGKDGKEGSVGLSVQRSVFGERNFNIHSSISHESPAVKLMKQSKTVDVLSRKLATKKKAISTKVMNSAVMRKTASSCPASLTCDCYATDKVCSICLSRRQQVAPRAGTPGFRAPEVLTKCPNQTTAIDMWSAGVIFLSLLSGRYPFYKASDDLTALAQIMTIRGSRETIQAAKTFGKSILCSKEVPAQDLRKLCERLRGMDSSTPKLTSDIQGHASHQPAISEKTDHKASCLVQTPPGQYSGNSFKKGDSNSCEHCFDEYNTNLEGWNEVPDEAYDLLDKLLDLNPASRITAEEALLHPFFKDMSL
T1 sequence (Q9UBU7 whole entry partner): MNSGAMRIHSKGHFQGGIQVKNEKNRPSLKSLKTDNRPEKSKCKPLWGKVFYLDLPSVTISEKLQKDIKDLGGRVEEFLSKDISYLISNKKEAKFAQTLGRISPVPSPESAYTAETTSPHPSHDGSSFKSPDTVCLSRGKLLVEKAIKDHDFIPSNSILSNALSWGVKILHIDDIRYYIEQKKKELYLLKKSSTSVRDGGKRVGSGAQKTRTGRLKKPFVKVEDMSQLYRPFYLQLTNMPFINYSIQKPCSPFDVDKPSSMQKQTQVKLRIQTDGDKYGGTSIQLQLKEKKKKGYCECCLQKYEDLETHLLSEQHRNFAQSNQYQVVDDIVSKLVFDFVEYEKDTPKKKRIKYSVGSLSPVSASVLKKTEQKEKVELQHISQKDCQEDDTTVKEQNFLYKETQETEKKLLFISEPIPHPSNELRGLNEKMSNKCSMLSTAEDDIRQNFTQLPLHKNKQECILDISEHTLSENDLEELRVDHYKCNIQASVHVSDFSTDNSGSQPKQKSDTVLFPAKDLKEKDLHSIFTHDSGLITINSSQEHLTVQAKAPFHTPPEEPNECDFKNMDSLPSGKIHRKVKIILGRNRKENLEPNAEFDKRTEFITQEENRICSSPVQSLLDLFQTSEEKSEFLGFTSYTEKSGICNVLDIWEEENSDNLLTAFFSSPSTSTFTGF
Experimental: The method used is a non-radioactive enzyme inhibition assay using human recombinant CDC7. It is based on luminometric quantification of inhibition using the ADP-Glo™ Kinase Kit. In this test the luminescent signal correlates positively with the amount of adenosine diphosphate (ADP) and the activity of the kinase. […]
CDC7 enzyme inhibition studies were conducted using the promega kit: ADP-Glo™ Kinase Assay+CDC7/DBF4 Kinase Enzyme System (Catalogue No. V5089). ATP and other reagents were purchased in Sigma-Aldrich (St. Louis, Mo.). The trials were performed in a buffer solution using 96-well plates. The compound to be tested (5 μL, 40 μM dissolved in DMSO 4%) was added to each well followed by the enzyme (5 μL, 25 ng/well), ATP (5 μL, final concentration in well 10 μM) and PDKtidE (5 μL, 4 μg/well). It was then incubated for 60 minutes at room temperature and the reagent ADP-Glo™ (20 μL) was added and incubated again for 40 min at room temperature. After incubation, the kinase detection agent (40 μL) was added and incubated for 30 min at room temperature. Finally, the luminescence (integration time of 0.5-1 sec) was measured using a POLARstar Optima multimode reader polarimeter. Inhibition activities were calculated as a function of maximum activity, measured in the absence of inhibitor.

[3] = PAMPA blood-brain barrier permeation (porcine brain lipid); type: in vitro ADME; conditions: for Papp at 2.5 h: PAMPA-BHE, PBS pH 7.4/EtOH 70:30, 2 h 30 min at 25° C., mean ± SD, read-out: Pe; for PAMPA prediction of central nervous system (CNS) penetration: from Pe in PAMPA-BHE
From the text: An essential requirement for drugs for the treatment of neurodegenerative diseases is the ability to cross the blood-brain barrier (BBB), as otherwise they could not act on the target of interest. Therefore, for compounds that are not permeable or located in the area of uncertainty, it may be necessary to properly convey a pharmaceutical formulation through methods known to an expert in the field, such as encapsulation. This capability can be predicted in vitro using a method known by the acronym PAMPA (Parallel Artificial Membrane Permeability Assay) described by Di et al (Di, L.; Kerns, E. H.; Fan, K.; McConnell, O. J.; Carter, G. T. Eur. J. Med. Chem. 2003, 38 (3), 223-232) and which has subsequently been fine-tuned in our research group. This method allows predicting the effective permeability through artificial membranes by means of a passive diffusion process.
First of all, it is necessary to validate the method, for which 10 commercial compounds are used whose penetration capacity in the central nervous system (CNS) is known and which are to be specified below, obtaining in this case a good linear correlation between the experimental permeability values (Pe) and those described (FIG. 1). This correlation line obtained following the pattern described in the bibliography allows establishing the limits to predict whether or not a compound can cross the blood-brain barrier. Thus, a compound is considered BBB permeable (SNC+) if it has a permeability>4.48×10^−6 cm-s^−1.
For the procedure, between 3-5 mg of caffeine, desipramine, enoxacin, hydrocortisone, ofloxacin, piroxicam and testosterone, 12 mg of promazine and 25 mg of atenolol and verapamil were taken and dissolved in EtOH (1000 μL). 100 μL of these solutions were taken and EtOH (1400 μL) and phosphate buffer (PBS) pH=7.4 (3500 μL) were added in order to achieve a final EtOH concentration of 30% v/v in solution. Finally, the dissolutions were filtered.
On the other hand, a PBS/EtOH solution (70:30) was added to each well of the acceptance plate (180 μL). The donor plate was impregnated with a porcine brain lipid solution (4 μL) dissolved in dodecane (20 mg mL^−1). After 5 min, dissolution of each compound was added to this plate (180 μL).
Of the compounds 1 to 10 evaluated, 1-2 mg were taken and dissolved in EtOH (1500 μL) and phosphate buffer (PBS) pH=7.4 (3500 μL), filtered and added to the donor plate. With these solutions, the wavelengths at which the compounds absorb are determined and the initial absorbance levels at these wavelengths are measured using a UV absorbance reader. Each sample was analyzed from two to five wavelengths, in three wells and in two independent experiments.
The donor plate was then deposited on the acceptor forming a kind of “sandwich” and incubated for 2 hours and 30 minutes at 25° C. In this way, the compounds will pass from the donor plate to the acceptor plate through the porcine brain lipid by passive diffusion. After that time, the donor plate is carefully removed and the concentration and final absorbance of both commercial and synthesized compounds is determined. The results obtained are expressed as the mean of the measurements [standard deviation (SD)] of the different experiments carried out and are shown in table 2.

[4] = molecular target: human recombinant CDC7/DBF4 (Homo sapiens, UniProt O00311); assay: CDC7 inhibition measurement (LanthaScreen Eu kinase binding, FRET); conditions: CDC7/DBF4 0.5 nM, 60 min at room temperature; read-out: CDC7 Lantha ™ CI50
human recombinant CDC7/DBF4, sequence (O00311 whole entry): as the sequence (O00311 whole entry) above
human recombinant CDC7/DBF4, sequence (Q9UBU7 whole entry partner): as the sequence (Q9UBU7 whole entry partner) above
From the text: The LanthaScreen Eu kinases inhibition assay uses an Alexa marker Fluor™ that binds to a kinase and is detected by the addition of an Eu-marked antibody. The binding of the marker and the antibody to the kinase results in a high degree of FRET, while the displacement of the marker by an inhibitor results in a loss of FRET. Unlike many other kinase activity tests, this is a simple mix and read test, with no developmental stages. This test method has been developed by Life Technologies and identifies competitive ATP kinase inhibitors, making them suitable for the detection of any compound that binds to the ATP site.
The compounds are evaluated at 1% DMSO (final) in the well. A mixture of human recombinant CDC7/DBF4 (0.5 nM), Eu-antiGST antibody (2 nM) and AlexaFluor marker (1 nM) has been used in a buffer of 50 mM HEPES pH 7.5, 0.01% BRIJ-35, 10 mM MgCl2, 1 mM EGTA in white plates of […], low volume, coded (Greiner cat. #784207), 160 nL (100×100% DMSO compound), 3.84 μL (buffer with CDC7/DBF4), 8.0 μL (antibody), 4.0 μL (marker) are added. Agitate 30 s and incubate at room temperature for 60 min. Then measure the fluorescence in the plate reader and analyze the data (Table 1).

[5] = tested on: TDP-43 phosphorylation (S409/410); assay: Effect on phosphorylation of TDP-43 (western blot); type: cell-based, human; conditions: SH-SY5Y cells, 24 h incubation with ethacrynic acid, FIG. 3
Experimental: FIG. 3. Sample of the effect of CDC7 inhibitors (compounds 1, 8, 9 and 13) on TDP-43 phosphorylation. Quantification and representation of phosphorylated TDP-43 levels by western blot.
To evaluate the levels of TDP-43 phosphorylated in the presence of CDC7 inhibitors (compounds 1 and 8), the cells after 24 h of incubation with ethacrylic acid were washed with PBS and then cold lysed with lysis buffer (50 mM Tris pH 7.4, 150 mM NaCl, 50 mM NaF, 1% Nonidet P-40 and Protease and phosphatase inhibitors (Roche)). The collected cell extracts were centrifuged for 10 minutes at 4,000 rpm. Protein quantification was performed with the Pierce BCA protein assay kit (Thermo Scientific). 10 μg of protein were loaded into the polyacrylamide gel with SDS and subsequently transferred to a polyvinylidene fluoride (PVDF) membrane (Millipore).

| IC50 [2] [µM] | Papp at 2.5 h [3] [×10⁻⁶ cm/s] | IC50 [4] [µM] | melting point [°C] | Compound | neuroprotective effect (cell viability) [1] | PAMPA prediction of central nervous system (CNS) penetration [3] | phosphorylated TDP-43 levels [5] |
| --- | --- | --- | --- | --- | --- | --- | --- |
| 6.74 ± 0.35 | 6.2 ± 1.1 | 0.125 |  | c1ccc(CSc2ncnc3[nH]cnc23)cc1 [Compound 1, 6-(benzylthio)-9H-purine] | neuroprotective effect | SNC+ (a compound is considered BBB permeable (SNC+) if it has a permeability>4.48×10^−6 cm-s^−1) | reduce phosphorylation of TDP-43 |
| 5.21 ± 0.38 | 15.1 ± 0.6 | 0.172 | 167 to 169 | Clc1cccc(CSc2ncnc3[nH]cnc23)c1 [Compound 8, 6-((3-Chlorobenzyl)thio)-9H-purine] | neuroprotective effect | SNC+ (a compound is considered BBB permeable (SNC+) if it has a permeability>4.48×10^−6 cm-s^−1) | reduce phosphorylation of TDP-43 |
| 3.34 ± 0.27 | 13.8 ± 2.5 | 0.086 | 185 to 187 | Ic1cccc(CSc2ncnc3[nH]cnc23)c1 [Compound 9, 6-((3-Iodobenzyl)thio)-9H-purine] | neuroprotective effect | SNC+ (a compound is considered BBB permeable (SNC+) if it has a permeability>4.48×10^−6 cm-s^−1) |  |
| 6.24 ± 0.99 | 13.1 ± 0.1 | 0.275 | 209 to 211 | Brc1ccccc1CSc1ncnc2[nH]cnc12 [Compound 13, 6-((2-bromobenzyl)thio)-9H-purine] | neuroprotective effect | SNC+ (a compound is considered BBB permeable (SNC+) if it has a permeability>4.48×10^−6 cm-s^−1) |  |
